Assay results: patent publication US20250230193A1, “CYCLIC COMPOUND HAVING SELECTIVE KRAS INHIBITORY EFFECT ON HRAS AND NRAS” (CHUGAI SEIYAKU KABUSHIKI KAISHA, priority 2022, published 2025)

Key:
[1] = target: GDP-bound NRAS wild-type protein (Homo sapiens, UniProt P01111); test: Binding to NRAS by surface plasmon resonance (SPR), Single Cycle Kinetics; settings: SPR, GDP-bound NRAS wild-type vs GDP-bound KRAS wild-type
[2] = target: GDP-bound HRAS wild-type protein (Homo sapiens, UniProt P01112); test: Binding to HRAS by surface plasmon resonance (SPR), Single Cycle Kinetics; settings: SPR, GDP-bound HRAS wild-type vs GDP-bound KRAS wild-type
Chain of GDP-bound HRAS wild-type protein (P01112 whole entry): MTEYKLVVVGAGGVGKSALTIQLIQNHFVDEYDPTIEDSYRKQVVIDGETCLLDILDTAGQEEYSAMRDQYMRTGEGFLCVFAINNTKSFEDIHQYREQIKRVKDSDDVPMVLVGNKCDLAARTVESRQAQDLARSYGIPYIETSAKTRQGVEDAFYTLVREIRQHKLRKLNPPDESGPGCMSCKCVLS

Chain of GDP-bound NRAS wild-type protein (P01111 whole entry): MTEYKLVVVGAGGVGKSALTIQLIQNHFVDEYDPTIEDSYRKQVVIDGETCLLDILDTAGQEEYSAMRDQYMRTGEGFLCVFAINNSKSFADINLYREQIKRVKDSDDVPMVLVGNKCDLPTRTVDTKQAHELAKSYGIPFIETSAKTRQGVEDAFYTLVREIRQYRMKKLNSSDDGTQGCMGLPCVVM

Row | Structure (SMILES) | NRAS/KRAS (ratio of KD value with respect to NRAS to KD value with respect to KRAS) [1] | HRAS/KRAS (ratio of KD value with respect to HRAS to KD value with respect to KRAS) [2]
1 | CCO[C@H](C)[C@@H]1NC(=O)[C@H](CC(C)C)N(C)C(=O)C[C@@H](C(=O)N(C)C)N(C)C(=O)[C@H](C2CCCC2)N(C)C(=O)C2(CC(C)(C)C2)NC(=O)[C@@H]2C[C@H](C)CN2C(=O)[C@H](CCc2ccc(C(F)(F)F)c(OC)c2)NC(=O)CN(C)C(=O)[C@H](Cc2ccc(C)cc2)N2CC/C=C\C[C@@H](C2=O)N(C)C(=O)CN(C)C1=O [PP2412] | A (a compound having 10 or more and less than 20 is denoted as A) | B (a compound having 3 or more and less than 10 is denoted as B)
2 | CCO[C@H](C)[C@@H]1NC(=O)[C@H](CC(C)C)N(C)C(=O)C[C@@H](C(=O)N(C)CC)N(C)C(=O)[C@H](C2CCCC2)N(C)C(=O)C2(CC(C)(C)C2)NC(=O)[C@@H]2C[C@H](C)CN2C(=O)[C@H](CCc2ccc(C(F)(F)F)c(OC)c2)NC(=O)CN(C)C(=O)[C@H](Cc2ccc(C)cc2)N2CC/C=C\C[C@@H](C2=O)N(C)C(=O)CN(C)C1=O [PP2413] | A (a compound having 10 or more and less than 20 is denoted as A) | A (a compound having 10 or more and less than 20 is denoted as A)
3 | CCO[C@H](C)[C@@H]1NC(=O)[C@H](CC(C)C)N(C)C(=O)C[C@@H](C(=O)N(C)CC)N(C)C(=O)[C@H](C2CCCC2)N(C)C(=O)C2(CC(C)(C)C2)NC(=O)[C@@H]2C[C@H](C)CN2C(=O)[C@H](CCc2cc(F)c(C(F)(F)F)c(F)c2)NC(=O)CN(C)C(=O)[C@H](Cc2ccc(C)cc2)N2CC/C=C\C[C@@H](C2=O)N(C)C(=O)CN(C)C1=O [PP2414] | A (a compound having 10 or more and less than 20 is denoted as A) | A (a compound having 10 or more and less than 20 is denoted as A)
4 | CCCO[C@H](C)[C@@H]1NC(=O)[C@H](CC(C)C)N(C)C(=O)C[C@@H](C(=O)N(C)C)N(C)C(=O)[C@H](C2CCCC2)N(C)C(=O)C2(CC(C)(C)C2)NC(=O)[C@@H]2C[C@H](C)CN2C(=O)[C@H](CCc2ccc(C(F)(F)F)c(OC)c2)NC(=O)CN(C)C(=O)[C@H](Cc2ccc(C)cc2)N2CC/C=C\C[C@@H](C2=O)N(C)C(=O)CN(C)C1=O [PP2415] | AA (a compound having 20 or more is denoted as AA) | A (a compound having 10 or more and less than 20 is denoted as A)
5 | CCCO[C@H](C)[C@@H]1NC(=O)[C@H](CC(C)C)N(C)C(=O)C[C@@H](C(=O)N(C)CC)N(C)C(=O)[C@H](C2CCCC2)N(C)C(=O)C2(CC(C)(C)C2)NC(=O)[C@@H]2C[C@H](C)CN2C(=O)[C@H](CCc2ccc(C(F)(F)F)c(OC)c2)NC(=O)CN(C)C(=O)[C@H](Cc2ccc(C)cc2)N2CC/C=C\C[C@@H](C2=O)N(C)C(=O)CN(C)C1=O [PP2416] | A (a compound having 10 or more and less than 20 is denoted as A) | B (a compound having 3 or more and less than 10 is denoted as B)
6 | CCCO[C@H](C)[C@@H]1NC(=O)[C@H](CC(C)C)N(C)C(=O)C[C@@H](C(=O)N(C)CC)N(C)C(=O)[C@H](C2CCCC2)N(C)C(=O)C2(CC(C)(C)C2)NC(=O)[C@@H]2C[C@H](C)CN2C(=O)[C@H](CCc2cc(F)c(C(F)(F)F)c(F)c2)NC(=O)CN(C)C(=O)[C@H](Cc2ccc(C)cc2)N2CC/C=C\C[C@@H](C2=O)N(C)C(=O)CN(C)C1=O [PP2417] | A (a compound having 10 or more and less than 20 is denoted as A) | A (a compound having 10 or more and less than 20 is denoted as A)
7 | CCO[C@H](C)[C@@H]1NC(=O)[C@H](CC(C)C)N(C)C(=O)C[C@@H](C(=O)N(C)C)N(C)C(=O)[C@H](C2CCCC2)N(C)C(=O)C2(CC(C)(C)C2)NC(=O)[C@@H]2C[C@H](C)CN2C(=O)[C@H](CCc2ccc(C(F)(F)F)c(OC)c2)NC(=O)CN(C)C(=O)[C@H](Cc2ccc(C)cc2)N2CC/C=C\C[C@@H](C2=O)N(C)C(=O)[C@@H]2CCCN2C1=O [PP2418] | A (a compound having 10 or more and less than 20 is denoted as A) | B (a compound having 3 or more and less than 10 is denoted as B)
8 | CCO[C@H](C)[C@@H]1NC(=O)[C@H](CC(C)C)N(C)C(=O)C[C@@H](C(=O)N(C)CC)N(C)C(=O)[C@H](C2CCCC2)N(C)C(=O)C2(CC(C)(C)C2)NC(=O)[C@@H]2C[C@H](C)CN2C(=O)[C@H](CCc2ccc(C(F)(F)F)c(OC)c2)NC(=O)CN(C)C(=O)[C@H](Cc2ccc(C)cc2)N2CC/C=C\C[C@@H](C2=O)N(C)C(=O)[C@@H]2CCCN2C1=O [PP2419] | A (a compound having 10 or more and less than 20 is denoted as A) | A (a compound having 10 or more and less than 20 is denoted as A)
9 | CCOC[C@H]1C(=O)N[C@@H]([C@@H](C)OCC)C(=O)N(C)CC(=O)N(C)[C@H]2C/C=C\CCN(C2=O)[C@@H](Cc2ccc(C)cc2)C(=O)N(C)CC(=O)N[C@@H](CCc2cc(F)c(C(F)(F)F)c(F)c2)C(=O)N2C[C@@H](C)C[C@H]2C(=O)NC2(CC(C)(C)C2)C(=O)N(C)[C@@H](C2CCCC2)C(=O)N(C)[C@H](C(=O)N(C)CC)CC(=O)N1C [PP2422] | A (a compound having 10 or more and less than 20 is denoted as A) | A (a compound having 10 or more and less than 20 is denoted as A)
10 | CCCOC[C@H]1C(=O)N[C@@H]([C@@H](C)OCC)C(=O)N(C)CC(=O)N(C)[C@H]2C/C=C\CCN(C2=O)[C@@H](Cc2ccc(C)cc2)C(=O)N(C)CC(=O)N[C@@H](CCc2ccc(C(F)(F)F)c(OC)c2)C(=O)N2C[C@@H](C)C[C@H]2C(=O)NC2(CC(C)(C)C2)C(=O)N(C)[C@@H](C2CCCC2)C(=O)N(C)[C@H](C(=O)N(C)CC)CC(=O)N1C [PP2423] | A (a compound having 10 or more and less than 20 is denoted as A) | A (a compound having 10 or more and less than 20 is denoted as A)
11 | CCCOC[C@H]1C(=O)N[C@@H]([C@@H](C)OCC)C(=O)N(C)CC(=O)N(C)[C@H]2C/C=C\CCN(C2=O)[C@@H](Cc2ccc(C)cc2)C(=O)N(C)CC(=O)N[C@@H](CCc2cc(F)c(C(F)(F)F)c(F)c2)C(=O)N2C[C@@H](C)C[C@H]2C(=O)NC2(CC(C)(C)C2)C(=O)N(C)[C@@H](C2CCCC2)C(=O)N(C)[C@H](C(=O)N(C)CC)CC(=O)N1C [PP2424] | A (a compound having 10 or more and less than 20 is denoted as A) | A (a compound having 10 or more and less than 20 is denoted as A)
12 | CCCO[C@H](C)[C@@H]1NC(=O)[C@H](COCC)N(C)C(=O)C[C@@H](C(=O)N(C)CC)N(C)C(=O)[C@H](C2CCCC2)N(C)C(=O)C2(CC(C)(C)C2)NC(=O)[C@@H]2C[C@H](C)CN2C(=O)[C@H](CCc2ccc(C(F)(F)F)c(OC)c2)NC(=O)CN(C)C(=O)[C@H](Cc2ccc(C)cc2)N2CC/C=C\C[C@@H](C2=O)N(C)C(=O)CN(C)C1=O [PP2425] | AA (a compound having 20 or more is denoted as AA) | A (a compound having 10 or more and less than 20 is denoted as A)
13 | CCCO[C@H](C)[C@@H]1NC(=O)[C@H](COCC)N(C)C(=O)C[C@@H](C(=O)N(C)CC)N(C)C(=O)[C@H](C2CCCC2)N(C)C(=O)C2(CC(C)(C)C2)NC(=O)[C@@H]2C[C@H](C)CN2C(=O)[C@H](CCc2cc(F)c(C(F)(F)F)c(F)c2)NC(=O)CN(C)C(=O)[C@H](Cc2ccc(C)cc2)N2CC/C=C\C[C@@H](C2=O)N(C)C(=O)CN(C)C1=O [PP2426] | AA (a compound having 20 or more is denoted as AA) | A (a compound having 10 or more and less than 20 is denoted as A)
14 | CCOC[C@H]1C(=O)N[C@@H]([C@@H](C)CC)C(=O)N2CCC[C@H]2C(=O)N(C)[C@H]2C/C=C\CCN(C2=O)[C@@H](Cc2ccc(C)cc2)C(=O)N(C)CC(=O)N[C@@H](CCc2ccc(C(F)(F)F)c(OC)c2)C(=O)N2C[C@@H](C)C[C@H]2C(=O)NC2(CC(C)(C)C2)C(=O)N(C)[C@@H](C2CCCC2)C(=O)N(C)[C@H](C(=O)N(C)CC)CC(=O)N1C [PP2427] | AA (a compound having 20 or more is denoted as AA) | A (a compound having 10 or more and less than 20 is denoted as A)
15 | CCOC[C@H]1C(=O)N[C@@H]([C@@H](C)CC)C(=O)N2CCC[C@H]2C(=O)N(C)[C@H]2C/C=C\CCN(C2=O)[C@@H](Cc2ccc(C)cc2)C(=O)N(C)CC(=O)N[C@@H](CCc2cc(F)c(C(F)(F)F)c(F)c2)C(=O)N2C[C@H](OCC)C[C@H]2C(=O)NC2(CC(C)(C)C2)C(=O)N(C)[C@@H](C2CCCC2)C(=O)N(C)[C@H](C(=O)N(C)CC)CC(=O)N1C [PP2428] | A (a compound having 10 or more and less than 20 is denoted as A) | A (a compound having 10 or more and less than 20 is denoted as A)
